This note sets out measurements from US20250268980A1, “AN ANTICANCER THERAPY TARGETING RAS AND OTHER ONCOGENIC SIGNALS BY INHIBITION OF DYNAMIC BLEBBING AND/OR SEPTINS” (THE BOARD OF REGENTS OF THE UNIVERSITY OF TEXAS SYSTEM, priority 2022, published 2025).

For one experiment, the system named is MV3 melanoma cells. Description: 3D cell morphology analysis (blebs, surface curvature) of MV3 cells. The class given is cell-based, human. The method, then:
Cells Embedded in 3D Collagen.
3D Light-Sheet Imaging. […] All images were saved in the OME-TIFF format.
3D Cell Image Analysis. Cell morphology and septin localization were analyzed principally via u-shape3D similar to the protocol described in Driscoll et al. Nature Methods. 16, 1037-1044 (2019), the disclosure of which is incorporated herein in its entirety. Briefly, 3D images were first deconvolved using either a Richardson-Lucy or Wiener algorithm with an experimentally measured point spread function. Cells were next segmented from the image background using u-shape3D's ‘twoLevel’ mode, which combines a straightforward Otsu threshold of the image to detect the outer cell surface with a blurred version of the image to segment the inside of the cell. The volume segmented from the blurred image was morphologically eroded to ensure the fidelity of the overall segmentation. Cell surfaces were then represented as triangle meshes, and the mean surface curvature at every triangle was calculated according to methods described in Driscoll et al. Nature Methods. 16, 1037-1044 (2019) and Elliott et al., Nat. […] To remove irregularities, the curvature was next smoothed in real space with a median filter of 1 pixel to remove infinities and then slightly diffused along the mesh. Septin and NRAS localization was measured from fluorescence images by extending a sphere of either 1 μm (for septins) or 2 μm (for NRAS) about each mesh triangle and mapping to the triangle the average intensity both within that sphere and the cell. Image intensity was not depth normalized prior to analysis, but was instead measured from the raw, undeconvolved image. […]
Blebs were also detected according to methods similar to that described in Driscoll et al. Nature Methods. […] Distances from bleb edges were then calculated as the geodesic distance from each triangle to the nearest bleb edge. […] Bleb and septin directional correlations were calculated using spherical statistics, in particular by fitting spherical normal distributions to distributions defined at each mesh triangle.

For the next experiment, the system named is M498 cells. Description: Detached/adhered viability assay, ethidium homodimer staining, M498. It counts as cell-based, human. To be noted: for cell death: 24 hours of WGA. The protocol:
Bleb formation was inhibited using wheat germ agglutinin (WGA), a lectin that reduces plasma membrane deformability by crosslinking components of the glycocalyx. […] To investigate putative bleb function as a driver of anchorage-independent cell survival assays were designed that consistently minimized both cell-substrate and cell-cell attachment over a period of 24 hours. This was accomplished by seeding cells at very low density (approx. 250 or 100 cells/ml) in non-adherent culture dishes under constant gentle agitation. For controls, cells were grown at identical concentrations in adherent variants of the same culture dishes. Together, this generated pairs of ‘detached’ and ‘adhered’ cell populations in paired same-day experiments.
Detached/Adhered Cell Culture. […] Drug treatments, solvent-only controls, or CellEvent caspase activity sensor were added to suspensions if appropriate to the experiment, and then immediately transferred to both an uncoated (for detached cells) and ibiTreated (for adhered cells) 8-well ibidi u-slide (ibidi cat #80821 and 80826) at 200 μl/well. Both slides were stored at 37° C. and 5% CO2 for either 24 hours (hrs) for viability assays, 3 hrs for ERK activity assays or 4 hours for caspase activation assays. Uncoated slides (detached) were nutated at 20 rpm during this time. […]
Viability, ERK Activity, and Caspase ActivityCell Counting Assays. Viability, ERK activity, and caspase activity assays were analyzed using live-cell fluorescent and phase-contrast microscopy, performed on a Nikon Ti microscope equipped with an environmental chamber held at 37° C. and 5% CO2 at 20× magnification. […] Live and dead cells (as identified by significant cellular ethidium signal) were counted using the Cell Counter ImageJ plugin. For ERK activity assays, live cells carrying ERK-nKTR-GFP and H2B-mCherry were imaged after 3 hours of experimental conditions and high/low ERK activity cells were counted with Cell Counter ImageJ plugin. […] Caspase positive and negative cells (as identified by significant cellular CellEvent signal) were counted using the Cell Counter ImageJ plugin.

In a further experiment the test system is MEF cells. Description: Caspase activity assay (CellEvent Caspase-3/7) in MEF cells expressing DYN2 (K44A). The settings on record: 10 μg/mL WGA or 50 μM FCF; for anoikis resistance acquired by DYN2 (K44A) expression: MEF DYN2 (K44A); for caspase activation: detached MEF DYN2 (K44A), 4 hours. It counts as cell-based, mouse. The text has this: Inhibitors. Wheat Germ Agglutinin (WGA) was purchased from Sigma (product #L9640). Forchlorfenuron (FCF) was purchased from Sigma (product #C2791). VitroGel and VitroGel-RGD were purchased from TheWell Bioscience (sku #s TWG001 and TWG002). H1152 was purchased from Tocris (catalogue #2414). NSC6683394 was purchased from Sigma (product #341216). Dabrafenib (GSK2118436), and Trametinib (GSK1120212) were purchased from Selleckchem. Transient expression of dominant negative Dyn2 (K44A) 66,67 was achieved through adenovirus transduction68 as previously described69 with cells analyzed 16-18 hours after transduction.
Detached/Adhered Cell Culture. […] Drug treatments, solvent-only controls, or CellEvent caspase activity sensor were added to suspensions if appropriate to the experiment, and then immediately transferred to both an uncoated (for detached cells) and ibiTreated (for adhered cells) 8-well ibidi u-slide (ibidi cat #80821 and 80826) at 200 μl/well. Both slides were stored at 37° C. and 5% CO2 for either 24 hours (hrs) for viability assays, 3 hrs for ERK activity assays or 4 hours for caspase activation assays. Uncoated slides (detached) were nutated at 20 rpm during this time. […] For experiments using MAPKi A375 cells, Dabrafenib and Trametinib treatment was continued over the course of the experiment.
Viability, ERK Activity, and Caspase ActivityCell Counting Assays. Viability, ERK activity, and caspase activity assays were analyzed using live-cell fluorescent and phase-contrast microscopy, performed on a Nikon Ti microscope equipped with an environmental chamber held at 37° C. and 5% CO2 at 20× magnification. For viability assays, cells were stained with ethidium homodimer-1 (Invitrogen cat #E1169) at 4 µM and Hoechst (ThermoFisher cat #H3570) at 10 μg/ml for 15 minutes before imaging. Live and dead cells (as identified by significant cellular ethidium signal) were counted using the Cell Counter ImageJ plugin. For ERK activity assays, live cells carrying ERK-nKTR-GFP and H2B-mCherry were imaged after 3 hours of experimental conditions and high/low ERK activity cells were counted with Cell Counter ImageJ plugin. Cells in which nuclear GFP signals were by eye higher than cytoplasmic signal (“brighter” nucleus visible within “darker” cytoplasm) were labelled ERK low, while cytoplasmic signals equal to or higher than nuclear signal (nucleus indistinguishable from cytoplasm or “darker” nucleus within “brighter” cytoplasm) were labelled ERK high. To control for unconscious bias in making this determination, the identity of all ERK experimental groups were blinded from the analyst. […] Caspase positive and negative cells (as identified by significant cellular CellEvent signal) were counted using the Cell Counter ImageJ plugin.

As to `O=C(Nc1ccccc1)Nc1ccnc(Cl)c1` [FCF, forchlorfenuron], in the experiment with MV3 melanoma cells (MV3, FCF treatment), the blebbiness entry is “without altering blebbiness”. Further, in the experiment with M498 cells (M498, 50 μM FCF, 24 hours), the “anoikis resistance (cell death adhered vs detached)” value was “greatly disrupted anoikis resistance”. Also, in the experiment with MEF cells, the “anoikis resistance acquired by DYN2 (K44A) expression” value is “reversed” and the caspase activation result is “returned to levels seen in matched non-blebbing control cells”.
wheat germ agglutinin [WGA]: the “bleb density (fraction of cell surface comprised of blebs)” value in the experiment with MV3 melanoma cells (MV3 cells, different concentrations of WGA, morphological motif analysis) is listed as “dosage dependent inhibitor of bleb density”. In the experiment with MV3 melanoma cells (control vs WGA-treated MV3 cells), the “mean plasma membrane curvature above K=0.4 μm-1” value is “reduced”. In addition, the values for the cell death result in the experiment on M498 cells (adhered M498 cells) and in the experiment with M498 cells (detached M498 cells) were “die upon WGA treatment” and “significantly more death”, respectively. For the same molecule, in the experiment on MEF cells, the “anoikis resistance acquired by DYN2 (K44A) expression” value was “reversed”. Moreover, the caspase activation result in the experiment with MEF cells is reported as “returned to levels seen in matched non-blebbing control cells”.
